Bounds are passed on as bounds.

In general, melting point refers to the temperature of the solid-liquid transition. Compound `CC1CC2=C(CCC(Cc3ccc(O)cc3)C2)NC1=O` (centres undefined) showed a melting point of 230 to 235 °C. In the case of `O=S1(=O)N=C(NOCc2ccccc2)Nc2ccc(Cl)cc21`, the melting point was > 220 °C. Consider `COc1ccc(CC2SC(=O)NC2=O)c2ccc(=O)n(C)c12` (centres undefined), for which the melting point was in the range of 254 to 255 °C. `Cn1c(=O)c2c(ncn2CCCN2CC=C(c3c[nH]c4ccc(Br)cc34)CC2)n(C)c1=O` had a melting point of 195 °C. `COC(=O)c1cc(-c2ccc(Cl)cc2)n(-c2ccc(Cl)cc2Cl)n1` returned a melting point of 167 °C. Take `O=S(=O)(NCCCCCOc1ccc(-n2ccnc2)cc1)c1ccc(Br)cc1`: the melting point fell in the range of 137 to 138 °C.

`O=C1Cc2cc(F)ccc2N1c1ccc(F)cc1`: the melting point is 135 to 140 °C. In turn, `COc1cccc(OC)c1-c1ccc(C[C@H](NC(=O)c2c(Cl)ccc(-c3c(C)noc3C)c2Cl)C(=O)O)cc1` came in with a melting point of 145 °C.

`COc1ccc(Oc2c(C)cc(CC(=O)O)cc2C)cc1C(C)C` displayed a melting point of 118 to 120 °C. With `Cc1ccc([N+](=O)[O-])c(C(N)=O)c1`, the melting point fell in the range of 172 to 175 °C. `CCc1cccc(CC)c1-n1cnc(N)nc1=O` registered a melting point of 136 to 138 °C. In the case of `CC(=O)OC1CCC2(C)C(=CC(=O)C3C4CC(OC(C)=O)C(=O)C4(C)CCC32)C1` (centres undefined) it was 206 °C; in that of `N#Cc1cc(C(=O)O)n(/C=C/c2ccccc2)c1`, 166 to 168 °C; in that of `COc1ccc(CS[C@H]2C[C@@H](C(N)=O)N(C)C2)cc1`, 113 to 114 °C.

As to `CC1(C)CCC(C)(C)c2c(O)cc(Br)cc21`, the melting point worked out at 93 °C. In turn, `CCC(O)(CC)c1cc(C)c(-c2cccc(OCc3ccc(CO)c(CO)c3)c2)c(C)c1` returned a melting point of 133 °C. `O=C(O)CCCc1ccc(N2CCOCC2)cc1` registered a melting point of 167 to 168 °C.

Take `Cc1ccc(S(=O)(=O)Cc2c(-c3cc([N+](=O)[O-])cc([N+](=O)[O-])c3)nn(C)c2O)cc1`: the melting point lay within 192 to 194 °C.

Compound `COc1ccc2cccc(C(CO)CNC(C)=O)c2c1` (centres undefined) displayed a melting point of 136 to 138 °C. The compound `CC(C)(C)c1cc(SC2CC(=O)OC2=O)cc(C(C)(C)C)c1O` (centres undefined) came in with a melting point of 92 to 93 °C. The compound `CCCCCc1cc2cc(O)ccc2c(Oc2ccc(/C=C/C(=O)O)cc2)c1-c1ccccc1` gave a melting point of 110 to 113 °C. Turning to `Cc1cc(Oc2ccccc2)c(NC(=O)OCc2ccccc2)c(=O)n1CC(=O)O`, the melting point fell in the range of 108 to 110 °C. In turn, `CCCCCc1cc2c(nc(O)n2CCc2ccccc2)c(N)n1` showed a melting point of 238 to 240 °C.

Take `N#CC(C#N)(CC=C(Cl)Cl)Cc1ccc(OC(F)(F)F)cc1`: the melting point stood at 96.5 °C. For the compound `COC(=O)C1CC(=O)N(c2ccc(C)cc2)C1` (centres undefined), the melting point was 71 to 74 °C.

For the compound `COc1ccc2c(c1)c(CC(N)=O)c(C)n2Cc1ccc(OCc2ccccc2)cc1`, the melting point was 155 to 157 °C. Compound `O=C(O)Cc1ccc2c(c1)C(=O)c1ccc(Cl)cc1CS2` had a melting point of 245 to 247 °C. The figure for `Cc1oc(C=Cc2cccc(C(F)(F)F)c2)nc1CCl` is 99 to 100 °C; for `Cc1oc(-c2ccccc2)nc1COc1cncc(CO)c1` it is 111 to 112 °C. The figure for `Cc1cc(C(=O)NC2=NC(C)(C)CC2(c2ccccc2)c2ccccc2)[nH]n1` is 193 to 195 °C; for `CC(=O)Nc1ccc(NC(=O)N(C[C@H]2CC[C@H](CN(C(=O)Nc3ccc(NC(C)=O)cc3)C3CCCCC3)CC2)C2CCCCC2)cc1` it is 228 to 231 °C; for `Nc1ccc(CCn2cccn2)cc1` it is 73 to 74 °C. The figure for `Cc1ccc(-c2c(-c3ccc(S(C)(=O)=O)cc3)cnn(-c3ccc(F)c(F)c3)c2=O)cc1F` is 204 to 206 °C; for `Clc1ccc(-c2nc3cccnc3n2Cc2ccccn2)cc1` it is 144 to 146 °C. `O=C(c1ccc(CNc2ncnc3ccccc23)cc1)N1CCN(c2ncc(Cc3ccccc3)cn2)CC1` displayed a melting point of 99 to 101 °C. On to `CC(C)c1nn2ccccc2c1C(=O)C1CCCC1`, for which the melting point is 106 to 110 °C. In the case of `COC(=O)c1cccc2nc(-c3ccccc3)oc12`, the melting point was found to be 77 °C.

The compound `CCOc1ccc2[nH]cc(C(=O)NCc3ccccn3)c(=O)c2c1` registered a melting point of 222 to 224 °C. Consider `NNP(=S)(NN)Oc1ccccc1`, for which the melting point was in the range of 94 to 95 °C. In turn, `CCNC(=O)c1c(Cl)cccc1[Si](C)(C)C1CC2CCC1C2` (centres undefined) returned a melting point of 124 to 125 °C.

In turn, `CC(=O)Oc1nc(-c2ccccc2)sc1-c1ccccc1` came in with a melting point of 101 to 103 °C. Compound `CNc1cc(-c2sc(N)nc2-c2cccc(C)n2)ccc1[N+](=O)[O-]` returned a melting point of 100 to 102 °C. `Cn1ccnc1Sc1ccc(Nc2c(C#N)cnc3cc(-c4ccc(CN5CCNCC5)cc4)ccc23)cc1Cl` displayed a melting point of 140 to 142 °C.

In the case of `OC(CN1CCC(C(O)c2ccccc2)CC1)c1ccccc1` (centres undefined), the melting point was determined as 104 °C.

On to `OCc1nc(-c2ccccc2)ccc1Cl`, for which the melting point fell in the range of 69 to 70 °C. `Cc1nc2c(O)cccc2n1C` displayed a melting point of 243 to 245 °C. As for `CN1CCC(C2c3sccc3CCn3ncnc32)CC1` (centres undefined), the melting point turned out to be 123 °C. `CC1(C)NC(C[PH](=O)O)C(C)(C)S1` (centres undefined) registered a melting point of 193 to 194 °C. `COCCc1cc(N2CCNCC2)n2nc(SC)c(S(=O)(=O)c3ccccc3)c2n1` came in with a melting point of 170 to 171 °C.

Consider `CCCCCCN(C)c1ccc(C=C2SC(=S)N(CC(=O)NS(C)(=O)=O)C2=O)cc1`, for which the melting point lay in the range of 227 to 230 °C. Turning to `CCOP(=O)(OCC)c1ccc2cccc(-c3cccc4ccccc34)c2n1`, the melting point stood at 128 °C. In the case of `CCC(C)(C)c1ccc(OCCCC(=O)Nc2ccc(Cl)c(NC(=O)C(C(=O)c3ccc(OC)cc3)N3C(=O)NC(=C(C)C)C3=O)c2)c(C(C)(C)CC)c1` (centres undefined) it was 140 to 141 °C; in that of `OC(Cn1ccnc1)c1cccnc1` (centres undefined), 119 to 121 °C.

`COc1ccc2c(c1)C(=O)C(C)(C)CC2c1ccc(Cl)cc1` (centres undefined) displayed a melting point of 135 to 138 °C. In turn, `O=C1Nc2ccc(Br)cc2C(c2ccccc2)=NC1OC(=O)C(F)(F)F` (centres undefined) yielded a melting point of 181 to 183 °C. In the case of `CCCOc1ccc(Br)c2c(=O)c3ccccc3sc12`, the melting point was in the range of 112 to 114 °C. In turn, `O=C(O)CCCCC=C(c1ccccc1)c1ccccc1` returned a melting point of 71.5 to 72.5 °C. Compound `CCCCCNS(=O)(=O)NC(=O)CCc1ccc(OCCOC)cc1Oc1ncc(C(F)(F)F)cc1Cl` showed a melting point of 153 to 154 °C.

`Cn1nc(-c2cc([N+](=O)[O-])c(Cl)cc2Cl)cc1OC(F)F` came in with a melting point of 134 to 137 °C. `Cc1[nH]c(C)c2c1C(C)(C)CC2(C)C#N` (centres undefined) showed a melting point of 130 to 140 °C. The figure for `COc1cc(C(C)=O)ccc1OC/C=C\CCl` is 64 to 66 °C; for `O=C1CCCN1CC1CCN(c2ccnc(C(F)(F)F)n2)CC1` it is 118 to 120 °C.

Compound `Cc1cc(C)nc(N2CC=C(N)N2)n1` displayed a melting point of 205 °C.

`CCOC(=O)c1c(S(=O)C(C)C)c2cc(OCc3ccccc3)ccc2n1C` (centres undefined): the melting point was in the range of 142 to 145 °C. For the compound `NCc1ccn(C2=CC3=C(CC2)CCc2[nH]c(=O)c(=O)n(O)c23)c1`, the melting point was > 250 °C. In the case of `COC(=O)c1cc(S(C)(=O)=O)ccc1OC1CCOC1=O` (centres undefined) it was 102 to 105 °C; in that of `Cc1cc(N(C)CC(=O)N2CCN(Cc3ccccc3)CC2)ccc1Oc1ccc(NC(=O)c2ccc(C(F)(F)F)cc2)cn1`, 112 to 113 °C; in that of `CC(=O)NS(=O)(=O)c1ccc(-c2c(-c3cccc(F)c3)noc2C)cc1`, 144 to 145 °C. Compound `Cn1c(=O)c2c(nc(Cl)n2Cc2ccccc2)n(C)c1=O` registered a melting point of 146 to 147 °C.

In the case of `CCc1c(F)c(=O)oc2cc(O)cc(O)c12`, the melting point was 227 to 229 °C. Turning to `Cc1ccc2[nH]nc(S(C)=O)c(=O)c2c1` (centres undefined), the melting point was 265 to 267 °C. In the case of `COC(=O)[C@H](c1ccccc1Cl)N1CCc2sc(OC(=O)N(C)C)cc2C1` it was 96 to 98 °C; in that of `O=C(O)c1ccc2c(c1)C(=O)CC(c1ccccc1)=N2`, > 300 °C.

Consider `Ic1cc(I)cc(Cc2cc(I)cc(I)c2)c1`, for which the melting point lay within 104 to 107 °C.

Take `CN(C)CCSc1cc(NC(=O)OC(C)(C)C)c(N)cc1C#Cc1ccccc1`: the melting point lay within 115 to 117 °C. Take `CCOC(=O)c1c(Cn2ccccc2=O)nc2cc(OC)c(OC)cc2c1-c1ccc(OC)c(OC)c1`: the melting point lay in the range of 154 to 156 °C. `CC(C)(C)c1nc(-c2ccc3c(c2)OCO3)[nH]c1C(C)(C)C` registered a melting point of 175 to 178 °C. Take `CC(=O)OC(C(=O)N1C(Cc2ccccc2)COC1(C)C)c1ccc(-c2ccc(-c3ccccc3)cc2)o1` (centres undefined): the melting point is 120 to 128 °C. In the case of `CCCc1nn(C)c2c(=O)[nH]c(-c3cc(S(=O)(=O)N4C[C@@H](C)N[C@@H](C)C4)ccc3OCC)nc12` it was 202 to 203 °C; in that of `CCC(CC)C(NS(=O)(=O)c1ccc(Cl)s1)C(C)O` (centres undefined), 95 to 98 °C; in that of `NC(=O)c1c(Cl)c(-c2cccnc2)n2c1CN(S(=O)(=O)c1ccc(C(F)(F)F)cc1)CC2`, 205 to 206 °C. Turning to `COc1cccc2cc(CNCCN3C(=O)CC4(CCCC4)CC3=O)oc12`, the melting point was in the range of 156 to 158 °C. Compound `COc1ccc(-c2ncccc2O)cc1OC` had a melting point of 150 to 155 °C. The figure for `O=C(CCC(=O)Sc1ccc(O)cc1)Sc1ccc(O)cc1` is 226 to 229 °C; for `Cn1nccc1OCc1c(S(C)(=O)=O)ccc(C(=O)O)c1Cl` it is 197 °C; for `Nc1c(Cl)cc(C(O)CNCCCCCCOCCCCc2ncccn2)cc1Cl` (centres undefined) it is 77 to 79 °C. Turning to `CC(C)C(NC(=O)c1ccccn1)C(=O)NC(Cc1ccccc1)C(O)C(O)C(Cc1ccccc1)NC(=O)C(NC(=O)c1ccccn1)C(C)C` (centres undefined), the melting point lay within 167 to 171 °C. As to `CCC(=O)Nc1c(C)c2c(c(Cc3ccc(C(C)C)cc3)c1C)OCC2`, the melting point fell in the range of 177 to 178 °C. The figure for `COC(=O)c1cc(I)ccn1` is 73 to 74 °C.

Values taken from a melting point compilation (Tetko et al.; mined from patent text by program, amines drawn as free bases though some values may be those of a salt).
